Data reported in PubChem BioAssay (NCI).
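Assay format: 96-well plates, 48-hour exposure. GI50 = concentration required for 50% inhibition of growth. At the TGI there is no net growth.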

What was measured:
Assay in all cases: NCI tumour cell line growth inhibition, 48 h
[1] = test system: 786-0 renal
[2] = test system: A498 renal
[3] = test system: A549 NSCLC
[4] = test system: ACHN renal
[5] = test system: BT-549 breast
[6] = test system: CAKI-1 renal
[7] = test system: CCRF-CEM leukemia
[8] = test system: COLO 205 colon
[9] = test system: DU-145 prostate
[10] = test system: EKVX NSCLC
[11] = test system: HCC-2998 colon
[12] = test system: HCT-116 colon
[13] = test system: HCT-15 colon
[14] = test system: HL-60(TB) leukemia
[15] = test system: HOP-62 NSCLC
[16] = test system: HOP-92 NSCLC
[17] = test system: HS 578T breast
[18] = test system: HT29 colon
[19] = test system: IGROV1 ovarian
[20] = test system: K-562 leukemia
[21] = test system: KM12 colon
[22] = test system: LOX IMVI melanoma
[23] = test system: M14 melanoma
[24] = test system: MALME-3M melanoma
[25] = test system: MCF7 breast
[26] = test system: MDA-MB-231 breast
[27] = test system: MDA-MB-435
[28] = test system: MDA-MB-468 breast
[29] = test system: MOLT-4 leukemia
[30] = test system: NCI-H226 lung
[31] = test system: NCI-H23 lung
[32] = test system: NCI-H460 lung
[33] = test system: NCI-H522 lung
[34] = test system: NCI/ADR-RES ovarian
[35] = test system: OVCAR-3 ovarian
[36] = test system: OVCAR-4 ovarian
[37] = test system: OVCAR-5 ovarian
[38] = test system: OVCAR-8 ovarian
[39] = test system: PC-3 prostate
[40] = test system: RPMI-8226 leukemia
[41] = test system: RXF 393 renal
[42] = test system: SF-268 CNS
[43] = test system: SF-295 CNS
[44] = test system: SF-539 CNS
[45] = test system: SK-MEL-2 melanoma
[46] = test system: SK-MEL-28 melanoma
[47] = test system: SK-MEL-5 melanoma
[48] = test system: SK-OV-3 ovarian
[49] = test system: SN12C renal
[50] = test system: SNB-19 CNS
[51] = test system: SNB-75 CNS
[52] = test system: SR leukemia
[53] = test system: SW-620 colon
[54] = test system: T-47D breast
[55] = test system: TK-10 renal
[56] = test system: U251 CNS
[57] = test system: UACC-257 melanoma
[58] = test system: UACC-62 melanoma
[59] = test system: UO-31 renal

## O=C1Nc2cc(-c3ccc(NS(=O)(=O)c4ccc([N+](=O)[O-])cc4)cc3)ccc2/C1=C/c1ccc[nH]1
[1]
  GI50: 14.4 µM
  TGI: 31.1 µM
[2]
  GI50: 18.4 µM
  TGI: 50.1 µM
[3]
  GI50: 12.1 µM
  TGI: 28.9 µM
[4]
  GI50: 12.1 µM
  TGI: 26.9 µM
[5]
  GI50: 10.5 µM
  TGI: 34.8 µM
[6]
  GI50: 14.1 µM
  TGI: 36.6 µM
[7]
  GI50: 13.6 µM
  TGI: > 100 µM
[8]
  GI50: 16 µM
  TGI: 47.9 µM
[9]
  GI50: 16 µM
  TGI: 33.6 µM
[10]
  GI50: 2.28 µM
  TGI: 32.7 µM
[11]
  GI50: 18.6 µM
  TGI: > 100 µM
[12]
  GI50: 13.2 µM
  TGI: 29 µM
[13]
  GI50: 11 µM
  TGI: 33.8 µM
[14]
  GI50: 27.6 µM
  TGI: > 100 µM
[15]
  GI50: 18 µM
  TGI: 44.1 µM
[16]
  GI50: 14.2 µM
  TGI: 39.6 µM
[17]
  GI50: 22.5 µM
  TGI: > 100 µM
[18]
  GI50: 14.8 µM
  TGI: 34 µM
[19]
  GI50: 19.4 µM
  TGI: > 100 µM
[20]
  GI50: 11.5 µM
  TGI: > 100 µM
[21]
  GI50: 14.3 µM
  TGI: 65.6 µM
[22]
  GI50: 13.7 µM
  TGI: 27.2 µM
[23]
  GI50: 13.8 µM
  TGI: 43.1 µM
[24]
  GI50: 15.7 µM
  TGI: 37.4 µM
[25]
  GI50: 1.74 µM
  TGI: 14.1 µM
[26]
  GI50: 16.8 µM
  TGI: 38.6 µM
[27]
  GI50: 16.1 µM
  TGI: 42.8 µM
[28]
  GI50: 0.778 µM
  TGI: 7.33 µM
[29]
  GI50: 8.77 µM
  TGI: > 100 µM
[30]
  GI50: 12.2 µM
  TGI: 30.1 µM
[31]
  GI50: 6.59 µM
  TGI: 26.8 µM
[32]
  GI50: 9.97 µM
  TGI: 32.2 µM
[33]
  GI50: 6.54 µM
  TGI: 28 µM
[34]
  GI50: 14.8 µM
  TGI: 50.9 µM
[35]
  GI50: 13.9 µM
  TGI: 32.4 µM
[36]
  GI50: 10.9 µM
  TGI: 92.6 µM
[37]
  GI50: 18.1 µM
  TGI: 50.2 µM
[38]
  GI50: 15.8 µM
  TGI: 36.2 µM
[39]
  GI50: 11.6 µM
  TGI: 65.2 µM
[40]
  GI50: 6.15 µM
  TGI: 73.6 µM
[41]
  GI50: 13.3 µM
  TGI: 31.6 µM
[42]
  GI50: 16.4 µM
  TGI: 80.4 µM
[43]
  GI50: 11.4 µM
  TGI: 41.3 µM
[44]
  GI50: 10.9 µM
  TGI: 23.8 µM
[45]
  TGI: 71.4 µM
[46]
  GI50: 12.3 µM
  TGI: 28 µM
[47]
  GI50: 19.9 µM
  TGI: 72.7 µM
[48]
  GI50: 18.2 µM
  TGI: 49.8 µM
[49]
  GI50: 14.6 µM
  TGI: 34.8 µM
[50]
  GI50: 16.3 µM
  TGI: 56.6 µM
[51]
  GI50: 20.4 µM
  TGI: > 100 µM
[52]
  GI50: 10.3 µM
  TGI: > 100 µM
[53]
  GI50: 21 µM
  TGI: 51.2 µM
[54]
  GI50: 4.77 µM
  TGI: > 100 µM
[55]
  GI50: 16.4 µM
  TGI: 51.3 µM
[56]
  GI50: 13.6 µM
  TGI: 27.3 µM
[57]
  GI50: 11.1 µM
  TGI: 44.3 µM
[58]
  GI50: 10.3 µM
  TGI: 29.7 µM
[59]
  GI50: 6.74 µM
  TGI: > 100 µM
